Reference: PubChem BioAssay (NCI)
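Five concentrations, 48 hours, 96-well plates. The concentration for 50% growth inhibition is given as GI50. TGI is the concentration that stops growth completely.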

Experiments:
Experiment in all cases: NCI tumour cell line growth inhibition, 48 h
MDA-MB-435 = tested on: MDA-MB-435
ACHN renal = tested on: ACHN renal
NCI-H23 lung = tested on: NCI-H23 lung
BT-549 breast = tested on: BT-549 breast
IGROV1 ovarian = tested on: IGROV1 ovarian
RPMI-8226 leukemia = tested on: RPMI-8226 leukemia
HCT-15 colon = tested on: HCT-15 colon
HT29 colon = tested on: HT29 colon
U251 CNS = tested on: U251 CNS
UACC-257 melanoma = tested on: UACC-257 melanoma

SMILES: Cc1ccc(C(=O)/C(C#N)=C/Nc2c(C)n(C)n(-c3ccccc3)c2=O)cc1
- TGI (MDA-MB-435): > 100 µM
- TGI (ACHN renal): > 100 µM
- TGI (NCI-H23 lung): > 100 µM
- TGI (BT-549 breast): > 100 µM
- TGI (IGROV1 ovarian): > 100 µM
- TGI (RPMI-8226 leukemia): > 100 µM
- TGI (HCT-15 colon): > 100 µM
- TGI (HT29 colon): > 100 µM
- TGI (U251 CNS): > 100 µM
- TGI (UACC-257 melanoma): > 100 µM

SMILES: O=c1[nH]c2cc3[nH]c4ncccc4c(=O)c3cc2[nH]1
- TGI (MDA-MB-435): > 10 µM
- TGI (ACHN renal): > 10 µM
- TGI (NCI-H23 lung): > 10 µM
- TGI (BT-549 breast): > 10 µM
- TGI (IGROV1 ovarian): > 10 µM
- TGI (RPMI-8226 leukemia): > 10 µM
- TGI (HCT-15 colon): > 10 µM
- TGI (HT29 colon): > 10 µM
- TGI (U251 CNS): > 10 µM
- TGI (UACC-257 melanoma): > 10 µM

SMILES: COc1cc(S(=O)(=O)Nc2ccc(C3=NNC(c4ccccc4)C3)cc2)ccc1F (stereo not given)
- GI50 (MDA-MB-435): 47.2 µM
- TGI (MDA-MB-435): > 100 µM
- GI50 (ACHN renal): 35.2 µM
- TGI (ACHN renal): > 100 µM
- GI50 (NCI-H23 lung): 34.6 µM
- TGI (NCI-H23 lung): > 100 µM
- GI50 (BT-549 breast): > 100 µM
- TGI (BT-549 breast): > 100 µM
- GI50 (IGROV1 ovarian): 93.8 µM
- TGI (IGROV1 ovarian): > 100 µM
- GI50 (RPMI-8226 leukemia): 21.6 µM
- TGI (RPMI-8226 leukemia): 73.1 µM
- GI50 (HCT-15 colon): 49 µM
- TGI (HCT-15 colon): > 100 µM
- GI50 (HT29 colon): 59.1 µM
- TGI (HT29 colon): > 100 µM
- GI50 (U251 CNS): 43.5 µM
- TGI (U251 CNS): > 100 µM
- GI50 (UACC-257 melanoma): 29.3 µM
- TGI (UACC-257 melanoma): > 100 µM

SMILES: O=C1c2cccc3cccc(c23)C(=O)N1CCCNOCCONCCCN1C(=O)c2cccc3cccc(c23)C1=O
- TGI (MDA-MB-435): > 100 µM
- TGI (ACHN renal): > 100 µM
- TGI (NCI-H23 lung): > 100 µM
- TGI (BT-549 breast): > 100 µM
- TGI (IGROV1 ovarian): > 100 µM
- TGI (RPMI-8226 leukemia): 74.4 µM
- TGI (HCT-15 colon): > 100 µM
- TGI (HT29 colon): > 100 µM
- TGI (U251 CNS): > 100 µM
- TGI (UACC-257 melanoma): > 100 µM

SMILES: CC(=O)N1CCN(C23OC4(N5CCN(C(C)=O)CC5)C5C6CC(C7C6C4C72)C53)CC1 (stereo not given)
- TGI (MDA-MB-435): > 100 µM
- TGI (ACHN renal): > 100 µM
- TGI (NCI-H23 lung): > 100 µM
- TGI (BT-549 breast): > 100 µM
- TGI (IGROV1 ovarian): > 100 µM
- TGI (RPMI-8226 leukemia): > 100 µM
- TGI (HCT-15 colon): > 100 µM
- TGI (HT29 colon): > 100 µM
- TGI (U251 CNS): > 100 µM
- TGI (UACC-257 melanoma): > 100 µM

SMILES: C=C(C)C1CC=C(C)C2(C1)OCC(C)(C)C(C)O2 (stereo not given)
- TGI (MDA-MB-435): 48 µM
- TGI (ACHN renal): 40.9 µM
- TGI (NCI-H23 lung): 48.4 µM
- TGI (BT-549 breast): 36 µM
- TGI (IGROV1 ovarian): 48.2 µM
- TGI (RPMI-8226 leukemia): 43.2 µM
- TGI (HCT-15 colon): 33.9 µM
- TGI (HT29 colon): 33.2 µM
- TGI (U251 CNS): 31 µM
- TGI (UACC-257 melanoma): 81.9 µM

SMILES: Cc1c2c(OCCCCN3CCN(c4ncccn4)CC3)nn(C)c(=O)c2c(C)n1-c1ccccc1
- TGI (MDA-MB-435): 40.5 µM
- TGI (ACHN renal): 31.3 µM
- TGI (NCI-H23 lung): 37 µM
- TGI (BT-549 breast): 34.5 µM
- TGI (IGROV1 ovarian): 35 µM
- TGI (RPMI-8226 leukemia): 74.4 µM
- TGI (HCT-15 colon): 32.7 µM
- TGI (HT29 colon): > 100 µM
- TGI (U251 CNS): 32 µM
- TGI (UACC-257 melanoma): 33.5 µM

SMILES: O=C1/C(=C2\Sc3c(ccc(Cl)c3Cl)C2=O)Sc2c1ccc(Cl)c2Cl
- TGI (MDA-MB-435): > 100 µM
- TGI (ACHN renal): > 100 µM
- TGI (NCI-H23 lung): > 100 µM
- TGI (BT-549 breast): > 100 µM
- TGI (IGROV1 ovarian): > 100 µM
- TGI (RPMI-8226 leukemia): > 100 µM
- TGI (HCT-15 colon): > 100 µM
- TGI (HT29 colon): > 100 µM
- TGI (U251 CNS): > 100 µM
- TGI (UACC-257 melanoma): > 100 µM

SMILES: COc1cc(C2S/C(=C/c3ccccc3)C(=O)N2c2ccc(Cl)c(Cl)c2)cc(OC)c1OC (stereo not given)
- TGI (MDA-MB-435): > 90.4 µM
- TGI (ACHN renal): > 100 µM
- TGI (NCI-H23 lung): > 100 µM
- TGI (BT-549 breast): > 100 µM
- TGI (IGROV1 ovarian): > 100 µM
- TGI (RPMI-8226 leukemia): > 100 µM
- TGI (HCT-15 colon): > 100 µM
- TGI (HT29 colon): > 100 µM
- TGI (U251 CNS): > 100 µM
- TGI (UACC-257 melanoma): > 100 µM

SMILES: NNc1nncn1N
- TGI (MDA-MB-435): 36.3 µM
- TGI (ACHN renal): > 100 µM
- TGI (NCI-H23 lung): > 79.5 µM
- TGI (BT-549 breast): > 100 µM
- TGI (IGROV1 ovarian): > 100 µM
- TGI (RPMI-8226 leukemia): > 100 µM
- TGI (HCT-15 colon): > 100 µM
- TGI (HT29 colon): > 100 µM
- TGI (U251 CNS): > 100 µM
- TGI (UACC-257 melanoma): > 100 µM

SMILES: O=c1[nH]c(N/N=C\C(O)C(O)C(O)CO)nc2ccccc12 (stereo not given)
- TGI (MDA-MB-435): > 100 µM
- TGI (ACHN renal): > 100 µM
- TGI (NCI-H23 lung): > 100 µM
- TGI (BT-549 breast): > 100 µM
- TGI (IGROV1 ovarian): > 100 µM
- TGI (RPMI-8226 leukemia): > 100 µM
- TGI (HCT-15 colon): > 100 µM
- TGI (HT29 colon): > 100 µM
- TGI (U251 CNS): > 100 µM
- TGI (UACC-257 melanoma): > 100 µM

SMILES: O=S1(=O)c2ccccc2NC(=S)CC1c1ccccc1 (stereo not given)
- TGI (MDA-MB-435): > 100 µM
- TGI (ACHN renal): > 100 µM
- TGI (NCI-H23 lung): > 100 µM
- TGI (BT-549 breast): > 100 µM
- TGI (IGROV1 ovarian): > 100 µM
- TGI (RPMI-8226 leukemia): > 100 µM
- TGI (HCT-15 colon): > 100 µM
- TGI (HT29 colon): > 100 µM
- TGI (U251 CNS): > 100 µM
- TGI (UACC-257 melanoma): > 100 µM

SMILES: CCOC(=O)C(CS)NC(=O)CCCCCCCC(=O)NC(CS)C(=O)OCC (stereo not given)
- TGI (MDA-MB-435): > 100 µM
- TGI (ACHN renal): > 100 µM
- TGI (NCI-H23 lung): > 100 µM
- TGI (BT-549 breast): > 100 µM
- TGI (IGROV1 ovarian): > 100 µM
- TGI (RPMI-8226 leukemia): > 100 µM
- TGI (HCT-15 colon): > 100 µM
- TGI (HT29 colon): > 100 µM
- TGI (U251 CNS): > 100 µM
- TGI (UACC-257 melanoma): > 100 µM
